This note sets out measurements from PMC9106035, “Synthesis, X-ray Structure and Biological Studies of New Self-Assembled Cu(II) Complexes Derived from s-Triazine Schiff Base Ligand” (Molecules, 2022).

Converted amounts (≈) assume the structure as drawn. “And” between values parts separate entries of the source, which are not always exact repeats. Equal values may be shown once. Read-outs that look alike come from different tables or passages of the source. Marks after values point to notes of the source that are not given here.

The term MIC denotes the lowest concentration that inhibits growth of the organism. The term IC50 denotes the concentration at which inhibition is half-maximal.

The test system of test [1] is B. subtilis (RCMB015(1)NRR LB-543). The test can be described thus: Agar well diffusion, inhibition zone. Type of test: cell-based. The note with it: 10 mg/mL of the tested compounds. The procedure:
(§1) The antimicrobial activity of the free ligands and the corresponding Cu(II) complexes was determined against different categories of microbes (Table 5). All inhibition zones were determined at 10 mg/mL of the tested compounds. […] The largest inhibition zones were found for B. subtilis (25 mm), which is very close to the standard Gentamycin (26 mm). […] Complex 1 evidenced antimicrobial activity against all microbes except C. albicans.
(§2) Method S2: Antimi crobial studies a) Tested pathogenic microbes
(§3) The antibacterial a ctivity of the studied ligands and their Cu(II) complexes were evaluated against two Gram positive bacteria ((S. aureus (ATCC 25923) and B. subtilis (RCMB015(1)NRR LB-543)), two Gram negatvie bacteria ((E. coli (ATCC 25922) and P. vulgaris (RCMB 004(1)ATCC 13315)) and two fungi ((A. fumigatus […]
(§4) was used as standard antibacterial agent. The samples maintained in Brain heart infusion (BHI) at 20 °C; […] of each stock–c ulture was added to 3 mL of BHI broth. Overnight cultures were kept for 24 h at 37 °C ± 1 °C and the purity of cultures was checked aft er 24 h of incubation. […]
(§5) b) Agar well diffusion method
(§6) Synthetic compounds were prepared at concentration 10 mg/mL dissolved in DMSO as stock solutions. Preparation of sterilized Mueller Hinton agar plates seeded with tested pathogenic b acteria occurred. The wells are done by sterilized cork borer in size […]
(§7) comparably with DMSO as control. The plates were incubated at 37°C for 24 h. after incubation period; antimicrobial activity was d etermined by inhibition zones. […]

For test [2], the system named is E. coli (ATCC 25922). The test can be described thus: Agar well diffusion, inhibition zone. Type of test: cell-based. The note with it: 10 mg/mL of the tested compounds. As for the experimental part: as §1, §2, §3, §4, §5, §6, §7
A general note: Agar diffusion results depend on both activity and mobility in agar.

Test [3] concerns P. vulgaris (RCMB 004(1)ATCC 13315). The test can be described thus: Agar well diffusion, inhibition zone. Type of test: cell-based. The note with it: 10 mg/mL of the tested compounds. As for the experimental part:
as §1, §2, §3, §4, §5, §6, §7

Test [4] deals with S. aureus (ATCC 25923). The test can be described thus: Agar well diffusion, inhibition zone. Type of test: cell-based. The note with it: 10 mg/mL of the tested compounds. The procedure:
as §1, §2, §3, §4, §5, §6, §7

Test [5] deals with B. subtilis (RCMB015(1)NRR LB-543). The test can be described thus: Minimum Inhibitory Concentration (MIC). Type of test: cell-based. As for the experimental part: as §2, §3, §4
(§8) c) Minimum Inhibitory Concentration (MIC)
(§9) Different dilutions of the compounds are inoculat ed with tested pathogenic microbes.
(§10) After incubation period of 96 well microplate, the results are meas ured using microplate reader. To determine at what level the MIC endpoint is established; subculture of test samples at different concentrati ons occurred in nutrient agar plates.

Test [6] deals with E. coli (ATCC 25922). The test can be described thus: Minimum Inhibitory Concentration (MIC). The test is classed as cell-based. As for the experimental part: as §2, §3, §4, §8, §9, §10
The test system of test [7] is P. vulgaris (RCMB 004(1)ATCC 13315). The test can be described thus: Minimum Inhibitory Concentration (MIC). The test is classed as cell-based. As for the experimental part:
as §2, §3, §4, §8, §9, §10

The subject of test [8] is S. aureus (ATCC 25923). The test can be described thus: Minimum Inhibitory Concentration (MIC). The test is classed as cell-based. The procedure:
as §2, §3, §4, §8, §9, §10

The subject of test [9] is A. fumigatus (RCMB 002008). The test can be described thus: Agar well diffusion, inhibition zone. The note with it: 10 mg/mL of the tested compounds. The test is classed as cell-based. The procedure:
as §1, §2, §3
was used as standard antibacterial agent. The samples maintained in Brain heart infusion (BHI) at 20 °C; […] of each stock–c ulture was added to 3 mL of BHI […]
broth. […]
(§11) 0.5). In case of fungi A. fumigatus (RCMB 002008) and C. albicans (RCMB 005003(1) ATCC 10231), the used medium in antagonistic activity against tested fungi is Potato Dextrose Agar, where Fluconazole was used standard antifungal agent. b) Agar well diffusion method
as §6, §7

In test [10] the test system is C. albicans (RCMB 005003(1) ATCC 10231). The test can be described thus: Agar well diffusion, inhibition zone. The test is classed as cell-based. The note with it: 10 mg/mL of the tested compounds. The procedure: as §1, §2
(§12) The antibacterial a ctivity of the studied ligands and their Cu(II) complexes were evaluated against two Gram positive bacteria ((S. aureus (ATCC 25923) and B. […]
as §11, §6, §7

The subject of test [11] is A. fumigatus (RCMB 002008). The test can be described thus: Minimum Inhibitory Concentration (MIC). The test is classed as cell-based. The procedure: as §2, §12
(§13) 0.5). In case of fungi A. fumigatus (RCMB 002008) and C. albicans (RCMB 005003(1) ATCC 10231), the used medium in antagonistic activity against tested fungi is Potato Dextrose Agar, where Fluconazole was used standard antifungal agent. […]
as §8, §9, §10

Test [12] relates to C. albicans (RCMB 005003(1) ATCC 10231). The test can be described thus: Minimum Inhibitory Concentration (MIC). Type of test: cell-based. The note with it: Candida albicans, read-out: MIC. As for the experimental part: as §2, §12, §13, §8, §9, §10
The test system of test [13] is lung carcinoma A-549 cell line. The test can be described thus: Anticancer activity, MTT viability assay. Type of test: cell-based. The note with it: A-549 cells, 24 h, MTT. The procedure: The studied compounds were examined for their anticancer activity against the lung carcinoma A-549 cell line.
Method S4 Evaluation of Cytotoxic activity
The cells were propagated in Dulbecco’s modified Eagle’s medium (DMEM) supplemented with 10% heat-inactivated fetal bovine serum, 1 % L-glutamine, HEPES buffer and 50µg/mL Gentamycin. All cells were maintained at 37 °C in a humidified atmosphere with 5% CO2 and were subcultured tw o times a week.
Cytotoxicity evaluation using viability assay
For cytotoxicity assay, the cells were seeded in 96-well plate at a cell concentration of 1×10^4 cells per well in 100µl of growth medium. Fresh medium containing different concentrations of the test sample was added after 24 h of seeding. Serial two-fold dilutions of the tested chemical compound were added to confluent cell monolayers dispensed into 96-well, flat-bottomed microtiter plates (Falcon, NJ, USA) using a multichannel pipette. The microtiter plates were incubated at 37 °C in a humidified incubator with 5% CO2 for a period of 24 h. Three wells were used for each concentration of the test sample. Control cells were incubated without test sample and with or without DMSO. The little percentage of DMSO present in the […]
cells for at 37°C, for 24 h, the viabl e cells yield was determined by the MTT test.
Briefly, the media was removed from the 96 well plate and replaced with 100 µL of fresh culture DMEM m edium without phenol red then 10 µL of the 12 mM MTT stock solution (5 mg of MTT in 1 mL of PBS) to each well including the untreated controls. The 96 well plates were then incubated at 37°C and 5% CO2 for 4 hours. An 85 µL aliquot of the media was removed from t he wells, and 50 µL of DMSO was added to each well and mixed thoroughly with the pipette and incubated at 37°C for 10 min. Then, the optical density was measured at 590 nm with the microplate reader (SunRise, TECAN, Inc, USA) to determine the number of viable cells and the percentage of viability was calculat ed as [(ODt/ODc)]x100% where ODt i s the mean optical density of wells treated with the tested s ample and ODc is the mean optical density of untreated cells. The relation between surviving cells and drug concentration is plotted to get the survival curve of each tumor cell line after treatment with the specified compound. The 50% inhibitory concentration (IC50), the concentration required to cause t oxic effects in 50% of intact cells, was estimated from graphic plots of the dose response curve for each conc. using Graphpad Prism software (San Diego, […]
(Formazan colour is commonly taken as a measure of viable cells.)

A short description of test [14]: DPPH radical scavenging assay. Type of test: biochemical. As for the experimental part:
The studied Cu(II) complexes and the free ligands were assessed for their antioxidant activity levels using an α,α-diphenyl-β-picrylhydrazyl (DPPH) scavenging assay, and the results are given in Table 7. […] The results indicated better antioxidant activity for DMAT than for DMOHT, indicating the effect of the substituent at the phenyl moiety on the antioxidant activity level of the free ligand. […] On the other hand, the Cu(II) complexes have improved levels of antioxidant activity compared to the free ligands.
Method S3 DPPH Radical Scavenging Activity:
Freshly prepared (0.004 %w/v) methanol solution of 2,2-diphenyl-1-pi crylhydrazyl (DPPH) radical was prepared and stored at 10 °C in dark place. A methanolic solution of the test compound was prepared using the same procedure. A 40 uL aliquot of the methanol solution was added to 3mL of DPPH solution. Absorbance measurements were recorded immediately with a UV-visible spectrophotometer (Milton Roy, Spectronic 1201). The decrease in absorbance at 515 nm was determined continuously, with data being recorded at 1 min intervals until the absorbance stabilized (16 min). The absorbance of the DPPH radical without antioxidant (control) and the reference compound ascorbic acid were also measured.
All the determinations were performed in three replicates and averaged. The percentage inhibition (PI) of the DPPH radical was calculated according to the […]
PI = [{(AC- AT)/ AC} x 100] (1)
Where AC = Absorbance of the control at t = 0 min and AT = absorbance of the sample+DPPH at t = 16 min. The 50% inhibitory concentration (IC50), the concentration required t o inhibit DPPH radical by 50%, was estimated from graphic plots of the dose respons e curve.
(In general: DPPH is a stable violet radical that fades when it is reduced.)

With Gentamycin [reference compound], the Inhibition zone diameters was 26 mm and 26 ^b mm in test [1]; 30 ^b mm with E. coli (ATCC 25922) [2]; 25 ^b mm in [3]; 24 ^b mm in the test with S. aureus (ATCC 25923) [4]. Further, the MIC in test [5] was 4.8 μg/mL and 4.8 ^b μg/mL; in the test on E. coli (ATCC 25922) [6], 4.8 ^b μg/mL; in [7], 4.8 ^b μg/mL; with S. aureus (ATCC 25923) [8], 9.7 ^b μg/mL.
`CC(=O)N1CCN(c2ccc(OCC3COC(Cn4ccnc4)(c4ccc(Cl)cc4Cl)O3)cc2)CC1` (stereo not shown) [Ketoconazole, reference compound]: the Inhibition zone diameters is 17 mm and 17 ^a mm in [9]; 20 ^a mm in test [10]. Also, the MIC in test [11] is 156.25 ^a μg/mL; in test [11] (Aspergillus fumigatus, RCMB002008, read-out: MIC) it was 156 µg/mL (≈ 294 µM); in test [12], 312 µg/mL (≈ 588 µM).
Compound `N.N.[Cl][Pt][Cl]` [cis-Platin, cis-platin, reference compound] came in with an IC50 in test [13] of 25 µM.
Turning to `O=C1O[C@H]([C@@H](O)CO)C(O)=C1O` [Ascorbic Acid, ascorbic acid, reference compound], the “DPPH Scavenging %” value was 34.57% in test [14] (Conc. 2.5 μg/mL); 40.36% in test [14] (Conc. 5 μg/mL); 48.52% in [14] (Conc. 10 μg/mL); 71.38% in [14] (Conc. 20 μg/mL); 83.09% in test [14] (Conc. 40 μg/mL); 90.25% in [14] (Conc. 80 μg/mL). Besides, the “DPPH Scavenging %” value is listed as 92.31% in test [14] (Conc. 160 μg/mL), 95.64% in [14] (Conc. 320 μg/mL), 97.83% in test [14] (Conc. 640 μg/mL) and 98.91% in test [14] (Conc. 1280 μg/mL). The “IC50 (DPPH scavenging)” value in test [14] (antioxidant activity) is 10.62 ± 0.84 µg/mL (≈ 60.3 µM).
